The source made the active and inactive calls. No cut-off for these calls is given here.
Columns and labels:
Angiopoietin-1 receptor [1] = molecular target: T1, Angiopoietin-1 receptor (Homo sapiens, UniProt Q02763); test: Inhibition of human Tie2 by HTRF method
Target sequence in this assay (Q02763 whole entry): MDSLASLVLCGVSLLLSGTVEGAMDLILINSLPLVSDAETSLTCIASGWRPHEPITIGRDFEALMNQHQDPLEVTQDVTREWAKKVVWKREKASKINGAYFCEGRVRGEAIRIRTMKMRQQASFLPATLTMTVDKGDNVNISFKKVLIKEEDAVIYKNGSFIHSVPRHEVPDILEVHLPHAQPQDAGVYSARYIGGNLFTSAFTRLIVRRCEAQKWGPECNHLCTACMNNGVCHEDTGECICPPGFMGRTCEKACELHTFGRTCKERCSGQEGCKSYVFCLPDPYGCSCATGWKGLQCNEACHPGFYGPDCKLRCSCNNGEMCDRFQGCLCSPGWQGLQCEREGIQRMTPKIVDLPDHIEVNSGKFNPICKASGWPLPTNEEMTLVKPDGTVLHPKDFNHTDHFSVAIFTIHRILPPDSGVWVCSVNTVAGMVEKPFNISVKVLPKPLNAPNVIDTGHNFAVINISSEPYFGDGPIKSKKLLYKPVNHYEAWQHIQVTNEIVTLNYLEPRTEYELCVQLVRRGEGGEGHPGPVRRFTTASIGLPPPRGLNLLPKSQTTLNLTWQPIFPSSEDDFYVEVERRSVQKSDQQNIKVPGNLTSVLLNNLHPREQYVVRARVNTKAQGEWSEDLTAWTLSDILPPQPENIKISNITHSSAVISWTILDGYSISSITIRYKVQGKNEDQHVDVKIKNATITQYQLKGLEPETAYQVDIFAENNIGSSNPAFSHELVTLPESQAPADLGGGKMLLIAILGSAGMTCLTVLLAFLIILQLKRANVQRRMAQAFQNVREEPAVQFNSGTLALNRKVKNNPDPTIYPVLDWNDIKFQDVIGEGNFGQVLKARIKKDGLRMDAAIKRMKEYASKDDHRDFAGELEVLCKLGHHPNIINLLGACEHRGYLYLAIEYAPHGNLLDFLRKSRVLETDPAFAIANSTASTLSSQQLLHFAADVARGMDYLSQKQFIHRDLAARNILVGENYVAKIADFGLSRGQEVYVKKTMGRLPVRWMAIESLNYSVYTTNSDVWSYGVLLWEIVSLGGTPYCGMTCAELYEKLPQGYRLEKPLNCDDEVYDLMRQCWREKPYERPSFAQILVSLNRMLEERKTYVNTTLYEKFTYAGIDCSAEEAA

[2] = molecular target: Vascular endothelial growth factor receptor 2 (Homo sapiens, UniProt P35968); test: Inhibition of human VEGFR2 by HTRF method
[3] = molecular target: Platelet-derived growth factor receptor (Homo sapiens, UniProt P09619+P16234); test: Inhibition of human PDGFR; format: protein-complex assay
[4] = molecular target: Vascular endothelial growth factor receptor 1 (Homo sapiens, UniProt P17948); test: Inhibition of human VEGFR1
[5] = Tmax in CD1 mouse at 10.7 mg/kg, po; format: ADME, organism-based; set-up: dose 10.7 mg/kg, route oral; conditions: in vivo
HT-29 [6] = test: Cytotoxicity against human HT29 cells after 3 days; conditions: HT-29, 72 h
[7] = molecular target: Epidermal growth factor receptor (Homo sapiens, UniProt P00533); test: Inhibition of human EGFR
[8] = molecular target: Cyclin-dependent kinase 2 (Homo sapiens, UniProt P24941); test: Inhibition of human CDK2
Angiopoietin-1 receptor [9] = molecular target: T1, Angiopoietin-1 receptor; test: Inhibition of c-fms/Tie2 chimeric receptor transfected in 3T3 cell assessed as autophosphorylation activity; format: cell-based
Target sequence in this assay (Q02763 23-1124 limits assumed): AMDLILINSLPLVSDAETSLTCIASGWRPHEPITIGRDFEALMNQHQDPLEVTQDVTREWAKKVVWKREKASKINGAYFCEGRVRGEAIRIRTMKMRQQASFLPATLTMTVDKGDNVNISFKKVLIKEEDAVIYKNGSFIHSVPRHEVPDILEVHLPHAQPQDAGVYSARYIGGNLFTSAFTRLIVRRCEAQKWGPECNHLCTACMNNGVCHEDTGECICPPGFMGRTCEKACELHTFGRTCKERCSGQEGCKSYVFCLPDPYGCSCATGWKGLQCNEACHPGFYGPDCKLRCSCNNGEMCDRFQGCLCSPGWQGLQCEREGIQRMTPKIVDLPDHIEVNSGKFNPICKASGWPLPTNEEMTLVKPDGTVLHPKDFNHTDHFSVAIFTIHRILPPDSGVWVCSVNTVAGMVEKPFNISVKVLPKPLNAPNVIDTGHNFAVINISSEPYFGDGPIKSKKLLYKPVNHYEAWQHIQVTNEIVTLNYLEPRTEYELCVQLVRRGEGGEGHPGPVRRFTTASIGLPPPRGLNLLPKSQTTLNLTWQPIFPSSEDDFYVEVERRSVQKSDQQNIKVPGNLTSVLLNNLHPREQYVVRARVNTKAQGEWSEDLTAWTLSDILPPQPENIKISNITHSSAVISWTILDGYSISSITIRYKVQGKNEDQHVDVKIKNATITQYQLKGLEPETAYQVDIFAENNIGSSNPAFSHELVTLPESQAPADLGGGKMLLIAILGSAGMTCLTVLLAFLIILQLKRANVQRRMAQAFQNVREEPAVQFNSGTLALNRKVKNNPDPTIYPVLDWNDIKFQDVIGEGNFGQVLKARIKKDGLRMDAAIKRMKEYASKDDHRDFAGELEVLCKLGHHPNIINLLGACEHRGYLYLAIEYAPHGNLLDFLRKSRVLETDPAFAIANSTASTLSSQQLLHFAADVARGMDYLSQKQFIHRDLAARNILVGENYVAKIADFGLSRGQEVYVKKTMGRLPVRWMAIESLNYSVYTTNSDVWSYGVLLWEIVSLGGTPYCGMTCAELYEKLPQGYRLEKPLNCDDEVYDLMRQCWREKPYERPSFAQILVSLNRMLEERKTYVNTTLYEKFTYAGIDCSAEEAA

HT-29 [10] = test: Antiangiogenic activity against human HT29 cells xenografted in nude CD1 mouse assessed as decrease in blood vessel density at 3 mg/kg, po; format: functional; set-up: scale not given: the % may be the effect or the level left
HT-29 [11] = test: Inhibition of tumor growth in human HT29 cells xenografted in orally dosed nude CD1 mouse; format: functional, organism-based
[12] = molecular target: RAC-gamma serine/threonine-protein kinase (Homo sapiens, UniProt Q9Y243); test: Inhibition of human Akt3
RAC-gamma serine/threonine-protein kinase, sequence (Q9Y243 whole entry): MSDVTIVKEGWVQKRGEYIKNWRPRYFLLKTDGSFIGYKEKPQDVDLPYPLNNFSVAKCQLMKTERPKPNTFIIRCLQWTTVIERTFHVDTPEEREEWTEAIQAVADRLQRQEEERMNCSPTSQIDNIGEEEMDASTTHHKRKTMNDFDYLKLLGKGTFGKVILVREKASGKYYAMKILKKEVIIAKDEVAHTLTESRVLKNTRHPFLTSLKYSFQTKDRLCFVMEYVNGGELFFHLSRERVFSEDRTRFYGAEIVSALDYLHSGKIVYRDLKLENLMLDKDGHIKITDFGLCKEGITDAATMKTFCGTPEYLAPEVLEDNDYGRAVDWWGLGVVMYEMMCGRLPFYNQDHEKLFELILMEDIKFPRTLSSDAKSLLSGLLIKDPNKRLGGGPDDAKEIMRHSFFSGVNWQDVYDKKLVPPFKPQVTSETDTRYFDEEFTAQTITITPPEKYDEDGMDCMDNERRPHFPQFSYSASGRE

[13] = molecular target: Vascular endothelial growth factor receptor 3 (Homo sapiens, UniProt P35916); test: Inhibition of human VGFR3
[14] = AUC (0 to t) in CD1 mouse at 10.7 mg/kg, po; format: ADME, organism-based; set-up: dose 10.7 mg/kg, route oral; conditions: plasma
HT-29 [15] = test: Antiangiogenic activity against human HT29 cells xenografted in nude CD1 mouse; format: functional
HUVEC = test: Growth inhibition of VEGF-stimulated human HUVEC cells
HT-29 [16] = test: Antiangiogenic activity against human HT29 cells xenografted in nude CD1 mouse assessed as decrease in blood vessel density at 30 mg/kg, po; format: functional; set-up: scale not given: the % may be the effect or the level left
HT-29 [17] = test: Antiangiogenic activity against human HT29 cells xenografted in nude CD1 mouse assessed as decrease in blood vessel density at 10 mg/kg, po; format: functional; set-up: scale not given: the % may be the effect or the level left
[18] = molecular target: Macrophage colony-stimulating factor 1 receptor (Homo sapiens, UniProt P07333); test: Inhibition of human cFMS
Macrophage colony-stimulating factor 1 receptor, sequence (P07333 whole entry): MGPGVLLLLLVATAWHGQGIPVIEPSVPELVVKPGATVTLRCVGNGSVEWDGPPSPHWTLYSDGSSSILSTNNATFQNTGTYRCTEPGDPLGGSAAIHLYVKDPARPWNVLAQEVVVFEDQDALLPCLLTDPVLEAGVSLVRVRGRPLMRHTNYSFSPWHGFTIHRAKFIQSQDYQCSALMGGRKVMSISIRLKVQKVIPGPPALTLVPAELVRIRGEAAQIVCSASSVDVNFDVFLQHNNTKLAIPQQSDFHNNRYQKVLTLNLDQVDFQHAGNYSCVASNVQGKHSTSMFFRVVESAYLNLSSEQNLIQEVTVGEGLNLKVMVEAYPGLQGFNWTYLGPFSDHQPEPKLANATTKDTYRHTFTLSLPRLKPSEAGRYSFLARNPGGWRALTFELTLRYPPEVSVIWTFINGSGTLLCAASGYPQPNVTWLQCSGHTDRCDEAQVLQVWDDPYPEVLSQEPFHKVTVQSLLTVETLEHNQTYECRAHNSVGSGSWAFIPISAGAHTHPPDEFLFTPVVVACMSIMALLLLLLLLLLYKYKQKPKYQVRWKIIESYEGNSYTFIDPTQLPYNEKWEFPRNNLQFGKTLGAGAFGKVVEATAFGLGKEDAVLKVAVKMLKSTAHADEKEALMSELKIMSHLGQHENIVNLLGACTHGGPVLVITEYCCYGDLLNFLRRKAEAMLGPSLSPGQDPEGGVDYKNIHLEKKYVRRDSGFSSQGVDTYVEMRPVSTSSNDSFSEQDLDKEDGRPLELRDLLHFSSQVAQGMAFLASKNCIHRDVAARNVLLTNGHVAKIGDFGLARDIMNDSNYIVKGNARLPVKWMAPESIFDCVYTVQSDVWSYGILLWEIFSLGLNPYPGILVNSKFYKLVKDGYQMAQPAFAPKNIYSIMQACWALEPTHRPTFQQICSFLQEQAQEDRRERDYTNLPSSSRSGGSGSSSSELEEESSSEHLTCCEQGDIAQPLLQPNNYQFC

HFF = test: Cytotoxicity against human HFF cells after 3 days; conditions: 72 h
[19] = molecular target: Proto-oncogene tyrosine-protein kinase Src (Homo sapiens, UniProt P12931); test: Inhibition of human SRC
[20] = molecular target: Glycogen synthase kinase-3 (Homo sapiens, UniProt P49840+P49841); test: Inhibition of human GSK3; format: protein assay
[21] = Cmax in CD1 mouse at 10.7 mg/kg, po; format: ADME, organism-based; set-up: dose 10.7 mg/kg, route oral; conditions: in vivo

Vascular endothelial growth factor receptor 2, sequence (P35968 whole entry, looked up): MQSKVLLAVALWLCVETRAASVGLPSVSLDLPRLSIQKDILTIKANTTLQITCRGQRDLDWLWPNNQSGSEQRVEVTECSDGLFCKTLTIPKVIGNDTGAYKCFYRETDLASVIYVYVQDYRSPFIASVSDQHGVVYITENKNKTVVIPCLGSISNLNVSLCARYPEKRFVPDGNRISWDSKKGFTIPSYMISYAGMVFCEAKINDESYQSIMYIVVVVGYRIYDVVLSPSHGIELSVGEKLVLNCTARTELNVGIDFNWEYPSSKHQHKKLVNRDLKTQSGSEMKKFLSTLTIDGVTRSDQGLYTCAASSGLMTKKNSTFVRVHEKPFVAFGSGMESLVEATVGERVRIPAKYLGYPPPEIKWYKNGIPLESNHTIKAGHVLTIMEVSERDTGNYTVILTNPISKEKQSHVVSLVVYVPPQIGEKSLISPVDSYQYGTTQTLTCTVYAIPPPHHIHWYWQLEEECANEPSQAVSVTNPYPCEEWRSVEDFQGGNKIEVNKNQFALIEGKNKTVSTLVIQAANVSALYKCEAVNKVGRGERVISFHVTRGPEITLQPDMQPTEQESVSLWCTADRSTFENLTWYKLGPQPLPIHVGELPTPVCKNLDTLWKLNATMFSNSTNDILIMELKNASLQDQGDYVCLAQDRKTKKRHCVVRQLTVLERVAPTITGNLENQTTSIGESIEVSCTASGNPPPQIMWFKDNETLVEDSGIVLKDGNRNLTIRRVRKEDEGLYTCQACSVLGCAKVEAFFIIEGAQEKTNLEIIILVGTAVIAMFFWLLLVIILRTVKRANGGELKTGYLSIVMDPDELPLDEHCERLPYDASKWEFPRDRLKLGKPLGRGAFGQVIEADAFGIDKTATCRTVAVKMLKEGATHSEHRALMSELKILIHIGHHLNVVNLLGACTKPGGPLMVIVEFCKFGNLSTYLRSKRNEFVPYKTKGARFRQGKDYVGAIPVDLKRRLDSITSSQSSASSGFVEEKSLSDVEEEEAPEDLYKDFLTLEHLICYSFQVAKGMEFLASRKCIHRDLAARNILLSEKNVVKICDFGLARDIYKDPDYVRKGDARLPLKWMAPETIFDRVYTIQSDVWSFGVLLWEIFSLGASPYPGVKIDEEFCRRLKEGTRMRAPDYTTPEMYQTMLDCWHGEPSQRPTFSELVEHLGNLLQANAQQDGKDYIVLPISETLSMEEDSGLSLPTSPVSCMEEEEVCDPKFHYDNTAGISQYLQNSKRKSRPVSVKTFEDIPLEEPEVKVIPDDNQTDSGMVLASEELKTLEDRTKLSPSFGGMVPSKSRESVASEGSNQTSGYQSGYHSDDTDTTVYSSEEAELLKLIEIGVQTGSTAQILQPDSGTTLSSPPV

Work on `Nc1ncnc2occ(-c3ccc(NC(=O)Nc4cccc5ccccc45)cc3)c12` yielded an IC50 (Angiopoietin-1 receptor [1]) of 182 nM and an IC50 [2] of 447 nM.
Compound `Nc1ncnc2occ(-c3ccc(NC(=O)Nc4cccc(Oc5ccccc5)c4)cc3)c12` has an IC50 (Angiopoietin-1 receptor [1]) of 407 nM and an IC50 [2] of 1740 nM.
Work on `COc1ccc(F)c(NC(=O)Nc2ccc(-c3coc4ncnc(N)c34)cc2)c1` yielded an IC50 (Angiopoietin-1 receptor [1]) of 224 nM and an IC50 [2] of 331 nM.
With `Nc1ncnc2occ(-c3ccc(NC(=O)Nc4ccc5ccccc5c4)cc3)c12` the IC50 (Angiopoietin-1 receptor [1]) was 81.3 nM and the IC50 [2] was 24 nM.
For `Nc1ncnc2occ(-c3ccc(NC(=O)Nc4cc(C(F)(F)F)ccc4Cl)cc3)c12`, the IC50 (Angiopoietin-1 receptor [1]) was 204 nM and the IC50 [2] was 186 nM.
`Nc1ncnc2occ(-c3ccc(NC(=O)Nc4cc(C(F)(F)F)ccc4F)cc3)c12` [GW770249X] gave an IC50 (Angiopoietin-1 receptor [1]) of 13.5 nM, an IC50 [3] of 27.5 nM and an IC50 [4] of 8.51 nM. For the same compound, the Tmax [5] was 2 h, the IC50 (HT-29 [6]) was 5080 nM and the IC50 [7] was 10000 nM. It also gave an IC50 [2] of 7.76 nM, an IC50 [8] of 17800 nM and an IC50 (Angiopoietin-1 receptor [9]) of 18.3 nM. For the same compound, the Activity (HT-29 [10]) was 24.3%, the Activity (HT-29 [11]) was “Dose-dependent effect” and the IC50 [12] was 17400 nM. The IC50 [13] was 7.59 nM, the AUC(0-t) [14] was 20000 ng·h/mL and the Activity (HT-29 [15]) was “Active”. It also gave an IC50 (HUVEC) of 2.6 nM, an Activity (HT-29 [16]) of 62.9% and an Activity (HT-29 [17]) of 35.6%. For the same compound, the IC50 [18] was 38.9 nM, the IC50 (HFF) was 2510 nM and the IC50 [19] was 537 nM. For the same compound, the “Log IC50” value [20] was -5.66 and the Cmax [21] was 2720 ng/mL.
Work on `Nc1ncnc2occ(-c3ccc(NC(=O)Nc4cc(C(F)(F)F)cc(C(F)(F)F)c4)cc3)c12` [GW795486X] yielded an IC50 (Angiopoietin-1 receptor [1]) of 380 nM.
With `Nc1ncnc2occ(-c3ccc(NC(=O)Nc4cccc(C(F)(F)F)c4)cc3)c12` [GW795493X] the IC50 (Angiopoietin-1 receptor [1]) was 10.2 nM and the IC50 [2] was 7.08 nM.
